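GI50 is the concentration that inhibits growth by half. At the TGI there is no net growth.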
Legend:
Assay in all cases: DTP human tumour cell line panel, 384-well format
MDA-MB-468 breast = system: MDA-MB-468 breast
SNB-75 CNS = system: SNB-75 CNS
SN12C renal = system: SN12C renal
LOX IMVI melanoma = system: LOX IMVI melanoma
SK-MEL-28 melanoma = system: SK-MEL-28 melanoma
SNB-19 CNS = system: SNB-19 CNS
A549 NSCLC = system: A549 NSCLC
PC-3 prostate = system: PC-3 prostate
NCI-H322M lung = system: NCI-H322M lung
OVCAR-8 ovarian = system: OVCAR-8 ovarian
NCI-H460 NSCLC = system: NCI-H460 NSCLC
DU-145 prostate = system: DU-145 prostate
SF-268 CNS = system: SF-268 CNS
SK-MEL-5 melanoma = system: SK-MEL-5 melanoma
HS 578T breast = system: HS 578T breast
SF-539 CNS = system: SF-539 CNS
ACHN renal = system: ACHN renal
CCRF-CEM leukemia = system: CCRF-CEM leukemia
RPMI-8226 leukemia = system: RPMI-8226 leukemia
OVCAR-5 ovarian = system: OVCAR-5 ovarian
BT-549 breast = system: BT-549 breast
RXF 393 renal = system: RXF 393 renal
K-562 leukemia = system: K-562 leukemia
TK-10 renal = system: TK-10 renal
UACC-257 melanoma = system: UACC-257 melanoma
SF-295 CNS = system: SF-295 CNS
IGROV1 ovarian = system: IGROV1 ovarian
CAKI-1 renal = system: CAKI-1 renal
NCI-H522 lung = system: NCI-H522 lung
MDA-MB-231 breast = system: MDA-MB-231 breast
COLO 205 colon = system: COLO 205 colon
MDA-MB-435 melanoma = system: MDA-MB-435 melanoma
HL-60(TB) leukemia = system: HL-60(TB) leukemia
OVCAR-3 ovarian = system: OVCAR-3 ovarian
MCF7 breast = system: MCF7 breast
HOP-62 NSCLC = system: HOP-62 NSCLC
NCI-H226 lung = system: NCI-H226 lung
NCI/ADR-RES ovarian = system: NCI/ADR-RES ovarian
UO-31 renal = system: UO-31 renal
HCC-2998 colon = system: HCC-2998 colon
SR leukemia = system: SR leukemia
EKVX NSCLC = system: EKVX NSCLC
M14 melanoma = system: M14 melanoma
HCT-15 colon = system: HCT-15 colon
OVCAR-4 ovarian = system: OVCAR-4 ovarian
SW-620 colon = system: SW-620 colon
MOLT-4 leukemia = system: MOLT-4 leukemia
HOP-92 NSCLC = system: HOP-92 NSCLC
NCI-H23 lung = system: NCI-H23 lung
786-0 renal = system: 786-0 renal
MALME-3M melanoma = system: MALME-3M melanoma

`COc1cc(OC)c(/C=C/S(=O)(=O)Cc2ccc(OC)c(NCC(=O)O)c2)c(OC)c1` gave a GI50 (MDA-MB-468 breast) of 17.5 nM, a TGI (MDA-MB-468 breast) of 42.3 nM and a GI50 (SNB-75 CNS) of 35.1 nM. The TGI (SNB-75 CNS) was 211 nM, the GI50 (SN12C renal) was 63.8 nM and the TGI (SN12C renal) was over 100000 nM. The GI50 (LOX IMVI melanoma) was 45.7 nM, the TGI (LOX IMVI melanoma) was 362 nM and the GI50 (SK-MEL-28 melanoma) was 63.7 nM. For the same compound, the TGI (SK-MEL-28 melanoma) was over 100000 nM, the GI50 (SNB-19 CNS) was 43.9 nM and the TGI (SNB-19 CNS) was over 100000 nM. It also gave a GI50 (A549 NSCLC) of 61.3 nM, a TGI (A549 NSCLC) of over 100000 nM and a GI50 (PC-3 prostate) of 31.5 nM. The TGI (PC-3 prostate) was over 100000 nM, the GI50 (NCI-H322M lung) was 90.9 nM and the TGI (NCI-H322M lung) was over 100000 nM. It also gave a GI50 (OVCAR-8 ovarian) of 30.3 nM, a TGI (OVCAR-8 ovarian) of 93.8 nM and a GI50 (NCI-H460 NSCLC) of 22.6 nM. It also gave a TGI (NCI-H460 NSCLC) of 59.3 nM, a GI50 (DU-145 prostate) of 177 nM and a TGI (DU-145 prostate) of 1040 nM. It also gave a GI50 (SF-268 CNS) of 51 nM, a TGI (SF-268 CNS) of 2040 nM and a GI50 (SK-MEL-5 melanoma) of 19.5 nM. The TGI (SK-MEL-5 melanoma) was 45.8 nM, the GI50 (HS 578T breast) was 15.4 nM and the TGI (HS 578T breast) was 34.7 nM. It also gave a GI50 (SF-539 CNS) of 20.8 nM, a TGI (SF-539 CNS) of 50.8 nM and a GI50 (ACHN renal) of 58.9 nM. For the same compound, the TGI (ACHN renal) was over 100000 nM, the GI50 (CCRF-CEM leukemia) was 49.4 nM and the TGI (CCRF-CEM leukemia) was 157 nM. It also gave a GI50 (RPMI-8226 leukemia) of 19 nM, a TGI (RPMI-8226 leukemia) of 37.5 nM and a GI50 (OVCAR-5 ovarian) of 135 nM. The TGI (OVCAR-5 ovarian) was over 100000 nM, the GI50 (BT-549 breast) was 48.1 nM and the TGI (BT-549 breast) was 344 nM. It also gave a GI50 (RXF 393 renal) of 16.8 nM, a TGI (RXF 393 renal) of 49.4 nM and a GI50 (K-562 leukemia) of 32.4 nM. For the same compound, the TGI (K-562 leukemia) was 109 nM, the GI50 (TK-10 renal) was 50.9 nM and the TGI (TK-10 renal) was over 100000 nM. It also gave a GI50 (UACC-257 melanoma) of 17.7 nM, a TGI (UACC-257 melanoma) of 370 nM and a GI50 (SF-295 CNS) of 23.1 nM. For the same compound, the TGI (SF-295 CNS) was 57.6 nM, the GI50 (IGROV1 ovarian) was 60.4 nM and the TGI (IGROV1 ovarian) was over 100000 nM. For the same compound, the GI50 (CAKI-1 renal) was 46 nM, the TGI (CAKI-1 renal) was over 100000 nM and the GI50 (NCI-H522 lung) was 14.4 nM. It also gave a TGI (NCI-H522 lung) of 33 nM, a GI50 (MDA-MB-231 breast) of 92.9 nM and a TGI (MDA-MB-231 breast) of over 100000 nM. The GI50 (COLO 205 colon) was 215 nM, the TGI (COLO 205 colon) was 537 nM and the GI50 (MDA-MB-435 melanoma) was 17.1 nM. For the same compound, the TGI (MDA-MB-435 melanoma) was 36.6 nM, the GI50 (HL-60(TB) leukemia) was 33.6 nM and the TGI (HL-60(TB) leukemia) was 101 nM. It also gave a GI50 (OVCAR-3 ovarian) of 16.8 nM, a TGI (OVCAR-3 ovarian) of 38.2 nM and a GI50 (MCF7 breast) of 47.3 nM. It also gave a TGI (MCF7 breast) of 26000 nM, a GI50 (HOP-62 NSCLC) of 42.6 nM and a TGI (HOP-62 NSCLC) of over 100000 nM. It also gave a GI50 (NCI-H226 lung) of 38.3 nM, a TGI (NCI-H226 lung) of over 100000 nM and a GI50 (NCI/ADR-RES ovarian) of 16.4 nM. The TGI (NCI/ADR-RES ovarian) was 36.4 nM, the GI50 (UO-31 renal) was 86.2 nM and the TGI (UO-31 renal) was over 100000 nM. The GI50 (HCC-2998 colon) was 40.5 nM, the TGI (HCC-2998 colon) was 264 nM and the GI50 (SR leukemia) was 16.1 nM. The TGI (SR leukemia) was 31.6 nM, the GI50 (EKVX NSCLC) was 41.1 nM and the TGI (EKVX NSCLC) was over 100000 nM. The GI50 (M14 melanoma) was 25.9 nM, the TGI (M14 melanoma) was 82.7 nM and the GI50 (HCT-15 colon) was 32.3 nM. For the same compound, the TGI (HCT-15 colon) was 373 nM, the GI50 (OVCAR-4 ovarian) was 24.6 nM and the TGI (OVCAR-4 ovarian) was 95.5 nM. For the same compound, the GI50 (SW-620 colon) was 33.8 nM, the TGI (SW-620 colon) was over 100000 nM and the GI50 (MOLT-4 leukemia) was 64.1 nM. It also gave a TGI (MOLT-4 leukemia) of 187 nM, a GI50 (HOP-92 NSCLC) of 38.5 nM and a TGI (HOP-92 NSCLC) of 4170 nM. For the same compound, the GI50 (NCI-H23 lung) was 24.9 nM, the TGI (NCI-H23 lung) was 77.4 nM and the GI50 ([…]-0 renal) was 30.7 nM. The TGI (786-0 renal) was 607 nM, the GI50 (MALME-3M melanoma) was 25.9 nM and the TGI (MALME-3M melanoma) was 92.9 nM.

From PubChem BioAssay (NCI)
